US20090155209A1, “NOVEL MACROCYCLIC INHIBITORS OF HEPATITIS C VIRUS REPLICATION” (priority 2007, published 2009)

Experiments:
NS3-NS4 [1] = biological target: T1, NS3-NS4 (Hepatitis C virus genotype 1a, UniProt P27958); assay: NS3-NS4 activity, IC50 (Example 37, Table 8); assay type: biochemical
NS3-NS4 [2] = biological target: T1, NS3-NS4; assay: cell-based; settings: EC50, NS3-NS4 activity

T1 sequence (P27958 1027-1657): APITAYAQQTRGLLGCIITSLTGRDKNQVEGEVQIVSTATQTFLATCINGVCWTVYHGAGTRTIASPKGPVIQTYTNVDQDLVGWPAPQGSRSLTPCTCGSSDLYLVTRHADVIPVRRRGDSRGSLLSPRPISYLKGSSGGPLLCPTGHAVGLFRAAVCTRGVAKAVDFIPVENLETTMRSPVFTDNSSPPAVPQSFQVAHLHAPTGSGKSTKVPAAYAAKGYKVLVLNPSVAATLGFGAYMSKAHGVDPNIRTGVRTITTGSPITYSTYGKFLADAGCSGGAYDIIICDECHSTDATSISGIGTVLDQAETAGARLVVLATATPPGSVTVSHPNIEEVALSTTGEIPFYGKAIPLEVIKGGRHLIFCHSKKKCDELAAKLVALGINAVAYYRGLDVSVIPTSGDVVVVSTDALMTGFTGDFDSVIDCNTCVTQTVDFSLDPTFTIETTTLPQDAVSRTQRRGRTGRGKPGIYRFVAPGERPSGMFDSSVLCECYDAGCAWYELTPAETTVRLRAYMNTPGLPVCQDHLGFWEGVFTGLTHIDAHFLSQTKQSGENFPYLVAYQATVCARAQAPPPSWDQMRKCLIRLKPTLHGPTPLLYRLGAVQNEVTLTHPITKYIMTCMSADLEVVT
T1 sequence (P27958 1658-1711): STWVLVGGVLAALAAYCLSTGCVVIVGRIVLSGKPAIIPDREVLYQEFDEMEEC

Row | SMILES | IC50 (NS3-NS4 [1]) [nM] | EC50 (NS3-NS4 [2]) [nM]
1 | CC(C)c1cnc(N[C@H]2CCCCC/C=C\[C@@H]3C[C@@]3(C(=O)NS(=O)(=O)C3CC3)NC(=O)[C@@H]3C[C@@H](OC(=O)N4Cc5cccc(F)c5C4)CN3C2=O)s1 [Compound 201, (2R,6S,13aS,14aR,16aS,Z)-14a-(cyclopropylsulfonylcarbamoyl)-6-(5-isopropylthiazol-2-ylamino)-5,16-dioxo-1,2,3,5,6,7,8,9,10,11,13a,14,14a,15,16,16a-hexadecahydrocyclopropa[e]pyrrolo[1,2-a][1,4]diazacyclopentadecin-2-yl 4-fluoroisoindoline-2-carboxylate] | < 100 | < 100
2 | O=C1N[C@]2(C(=O)NS(=O)(=O)C3CC3)C[C@H]2/C=C\CCCCC[C@H](Nc2nc(-c3ccc(F)cc3)cs2)C(=O)N2C[C@H](OC(=O)N3Cc4cccc(F)c4C3)C[C@@H]12 [Compound 208] | < 100 | < 100
3 | CC(C)(C)OC(=O)N[C@H]1CCCCC/C=C\[C@@H]2C[C@@]2(C(=O)NS(=O)(=O)c2cc(Cl)sc2Cl)NC(=O)[C@@H]2C[C@@H](OC(=O)N3CCc4ccccc4C3)CN2C1=O [Compound 357] | 100 to 1000 | 100 to 1000
4 | CC(C)(C)OC(=O)N[C@H]1CCCCCCC[C@@H]2C[C@@]2(C(=O)NOc2cccc(F)c2)NC(=O)[C@@H]2C[C@@H](OC(=O)N3Cc4cccc(F)c4C3)CN2C1=O [Compound 810] | < 100 | 1000 to 10000
5 | O=C1N[C@]2(C(=O)NS(=O)(=O)C3CC3)C[C@H]2/C=C\CCCCC[C@H](Nc2nc(-c3cccnc3)cs2)C(=O)N2C[C@H](OC(=O)N3Cc4cccc(F)c4C3)C[C@@H]12 [Compound 214] | < 100 | < 100
6 | O=C1N[C@]2(C(=O)NS(=O)(=O)C3CC3)C[C@H]2/C=C\CCCCC[C@H](Nc2nc(-c3ccc(F)cc3F)cs2)C(=O)N2C[C@H](OC(=O)N3Cc4cccc(F)c4C3)C[C@@H]12 [Compound 219] | < 100 | < 100
7 | O=C1N[C@]2(C(=O)NS(=O)(=O)C3CC3)C[C@H]2/C=C\CCCCC[C@H](Nc2nc3c(s2)CCC3)C(=O)N2C[C@H](OC(=O)N3Cc4cccc(F)c4C3)C[C@@H]12 [Compound 206] | < 100 | 100 to 1000
8 | CC(C)(C)OC(=O)N[C@H]1CCCCC/C=C\[C@@H]2C[C@@]2(C(=O)NS(=O)(=O)c2cc(Cl)sc2Cl)NC(=O)[C@@H]2C[C@@H](OC(=O)N3Cc4ccccc4C3)CN2C1=O [Compound 319] | < 100 | < 100
9 | Cc1csc(N[C@H]2CCCCC/C=C\[C@@H]3C[C@@]3(C(=O)NS(=O)(=O)C3CC3)NC(=O)[C@@H]3C[C@@H](OC(=O)N4Cc5cccc(F)c5C4)CN3C2=O)n1 [Compound 227] | < 100 | < 100
10 | CC(C)(C)OC(=O)N[C@H]1CCCCCCC[C@@H]2C[C@@]2(C(=O)NOc2ccc(-c3ccccc3)cc2)NC(=O)[C@@H]2C[C@@H](OC(=O)N3Cc4cccc(F)c4C3)CN2C1=O [Compound 803] | < 100 | 1000 to 10000
11 | CC(=O)O[C@@H]1C[C@H]2C(=O)N[C@]3(C(=O)NS(=O)(=O)C4CC4)C[C@H]3/C=C\CCCCC[C@H](Nc3nc(-c4ccccc4)c(-c4ccccc4)s3)C(=O)N2C1 [Compound 235] | < 100 | 100 to 1000
12 | CC(C)(OC(=O)N[C@H]1CCCCC/C=C\[C@@H]2C[C@@]2(C(=O)NS(=O)(=O)C2CC2)NC(=O)[C@@H]2C[C@@H](OC(=O)N3Cc4cccc(F)c4C3)CN2C1=O)C1CC1 [Compound 443] | < 100 | < 100
13 | O=C1N[C@]2(C(=O)NS(=O)(=O)C3CC3)C[C@H]2/C=C\CCCCC[C@H](Nc2nc(-c3cccc(C(F)(F)F)c3)cs2)C(=O)N2C[C@H](OC(=O)N3Cc4cccc(F)c4C3)C[C@@H]12 [Compound 218] | < 100 | < 100
14 | CN(C(=O)N[C@H]1CCCCC/C=C\[C@@H]2C[C@@]2(C(=O)NS(=O)(=O)C2CC2)NC(=O)[C@@H]2C[C@@H](OC(=O)N3Cc4cccc(Cl)c4C3)CN2C1=O)C(C)(C)C [Compound 424] | < 100 | < 100
15 | O=C(N[C@H]1CCCCC/C=C\[C@@H]2C[C@@]2(C(=O)NS(=O)(=O)C2CC2)NC(=O)[C@@H]2C[C@@H](OC(=O)N3Cc4cccc(F)c4C3)CN2C1=O)OC1CCOCC1 [Compound 401, (2R,6S,13aS,14aR,16aS,Z)-14a-(cyclopropylsulfonylcarbamoyl)-5,16-dioxo-6-((tetrahydro-2H-pyran-4-yloxy)carbonylamino)-1,2,3,5,6,7,8,9,10,11,13a,14,14a,15,16,16a-hexadecahydrocyclopropa[e]pyrrolo[1,2-a][1,4]diazacyclopentadecin-2-yl 4-fluoroisoindoline-2-carboxylate] | < 100 | < 100
16 | CC(C)(C)OC(=O)N[C@H]1CCCCC/C=C\[C@@H]2C[C@@]2(C(=O)NS(=O)(=O)c2cc(F)ccc2F)NC(=O)[C@@H]2C[C@@H](OC(=O)N3Cc4cccc(F)c4C3)CN2C1=O [Compound 307] | < 100 | < 100
17 | CC(C)(C)OC(=O)N[C@H]1CCCCCCC[C@@H]2C[C@@]2(C(=O)NS(=O)(=O)c2cc3ccccc3o2)NC(=O)[C@@H]2C[C@@H](OC(=O)N3Cc4cccc(F)c4C3)CN2C1=O [Compound 648] | < 100 | 100 to 1000
18 | Cc1ccccc1CS(=O)(=O)NC(=O)[C@@]12C[C@H]1CCCCCCC[C@H](NC(=O)OC(C)(C)C)C(=O)N1C[C@H](OC(=O)N3Cc4cccc(F)c4C3)C[C@H]1C(=O)N2 [Compound 613] | < 100 | < 100

Row | SMILES | IC50 (NS3-NS4 [1]) [nM] | EC50 (NS3-NS4 [2]) [nM]
19 | Cc1cnc(N[C@H]2CCCCC/C=C\[C@@H]3C[C@@]3(C(=O)NS(=O)(=O)C3CC3)NC(=O)[C@@H]3C[C@@H](OC(=O)N4Cc5cccc(F)c5C4)CN3C2=O)s1 [Compound 226] | < 100 | < 100
20 | COc1ccc(S(=O)(=O)NC(=O)[C@@]23C[C@H]2/C=C\CCCCC[C@H](NC(=O)OC(C)(C)C)C(=O)N2C[C@H](OC(=O)N4Cc5cccc(F)c5C4)C[C@H]2C(=O)N3)cc1 [Compound 352] | < 100 | < 100
21 | CC(C)(C)OC(=O)N[C@H]1CCCCC/C=C\[C@@H]2C[C@@]2(C(=O)NOCc2ccccc2)NC(=O)[C@@H]2C[C@@H](OC(=O)N3Cc4cccc(F)c4C3)CN2C1=O [Compound 107] | < 100 | 1000 to 10000
22 | Cc1ccc(S(=O)(=O)NC(=O)[C@@]23C[C@H]2/C=C\CCCCC[C@H](NC(=O)OC(C)(C)C)C(=O)N2C[C@H](OC(=O)N4Cc5cccc(F)c5C4)C[C@H]2C(=O)N3)cc1 [Compound 318] | < 100 | < 100
23 | Cc1ccc(C)c(ONC(=O)[C@@]23C[C@H]2/C=C\CCCCC[C@H](NC(=O)OC(C)(C)C)C(=O)N2C[C@H](OC(=O)N4Cc5cccc(F)c5C4)C[C@H]2C(=O)N3)c1 [Compound 713] | < 100 | 1000 to 10000
24 | CC(C)(C)OC(=O)N[C@H]1CCCCC/C=C\[C@@H]2C[C@@]2(C(=O)NS(=O)(=O)Cc2cc(C(F)(F)F)cc(C(F)(F)F)c2)NC(=O)[C@@H]2C[C@@H](OC(=O)N3Cc4cccc(F)c4C3)CN2C1=O [Compound 528] | < 100 | 10000 to 50000
25 | CC(C)COC(=O)N[C@H]1CCCCC/C=C\[C@@H]2C[C@@]2(C(=O)NS(=O)(=O)C2CC2)NC(=O)[C@@H]2C[C@@H](OC(=O)N3Cc4cccc(F)c4C3)CN2C1=O [Compound 436] | < 100 | < 100
26 | Cc1ccc(C)c(S(=O)(=O)NC(=O)[C@@]23C[C@H]2/C=C\CCCCC[C@H](NC(=O)OC(C)(C)C)C(=O)N2C[C@H](OC(=O)N4Cc5cccc(F)c5C4)C[C@H]2C(=O)N3)c1 [Compound 313] | < 100 | < 100
27 | CC(C)C1(S(=O)(=O)NC(=O)[C@@]23C[C@H]2CCCCCCC[C@H](NC(=O)OC(C)(C)C)C(=O)N2C[C@H](OC(=O)N4Cc5cccc(F)c5C4)C[C@H]2C(=O)N3)CC1 [Compound 653] | < 100 | < 100
28 | CC(C)Oc1ccc(S(=O)(=O)NC(=O)[C@@]23C[C@H]2/C=C\CCCCC[C@H](NC(=O)OC(C)(C)C)C(=O)N2C[C@H](OC(=O)N4Cc5cccc(F)c5C4)C[C@H]2C(=O)N3)cc1 [Compound 356] | < 100 | < 100
29 | O=C1N[C@]2(C(=O)NS(=O)(=O)C3CC3)C[C@H]2/C=C\CCCCC[C@H](Nc2nc(-c3ccc(Br)cc3)cs2)C(=O)N2C[C@H](OC(=O)N3Cc4cccc(F)c4C3)C[C@@H]12 [Compound 220] | < 100 | < 100
30 | CC(C)(C)COC(=O)N[C@H]1CCCCC/C=C\[C@@H]2C[C@@]2(C(=O)NS(=O)(=O)c2ccc(Cl)cc2)NC(=O)[C@@H]2C[C@@H](OC(=O)N3Cc4cccc(F)c4C3)CN2C1=O [Compound 340] | < 100 | < 100
31 | CC(C)(C)OC(=O)N[C@H]1CCCCC/C=C\[C@@H]2C[C@@]2(C(=O)NS(=O)(=O)Cc2cc(Cl)ccc2Cl)NC(=O)[C@@H]2C[C@@H](OC(=O)N3Cc4cccc(F)c4C3)CN2C1=O [Compound 525] | < 100 | 100 to 1000
32 | O=C1N[C@]2(C(=O)NS(=O)(=O)C3CC3)C[C@H]2/C=C\CCC(F)(F)CC[C@H](NC(=O)C2(C(F)(F)F)CC2)C(=O)N2C[C@H](OC(=O)N3Cc4ccccc4C3)C[C@@H]12 [Compound 409] | < 100 | < 100
33 | O=C(N[C@H]1CCCCC/C=C\[C@@H]2C[C@@]2(C(=O)NS(=O)(=O)C2CC2)NC(=O)[C@@H]2C[C@@H](OC(=O)N3Cc4cccc(F)c4C3)CN2C1=O)OC1CCC1 [Compound 427] | < 100 | < 100
34 | C=CCC1(S(=O)(=O)NC(=O)[C@@]23C[C@H]2CCCCCCC[C@H](NC(=O)OC(C)(C)C)C(=O)N2C[C@H](OC(=O)N4Cc5cccc(F)c5C4)C[C@H]2C(=O)N3)CC1 [Compound 649] | < 100 | < 100
35 | CC(C)(C)OC(=O)N[C@H]1CCCCC/C=C\[C@@H]2C[C@@]2(C(=O)NS(=O)(=O)c2cccc(C(F)(F)F)c2)NC(=O)[C@@H]2C[C@@H](OC(=O)N3Cc4cccc(F)c4C3)CN2C1=O [Compound 308] | < 100 | < 100
36 | Cc1ccc(ONC(=O)[C@@]23C[C@H]2CCCCCCC[C@H](NC(=O)OC(C)(C)C)C(=O)N2C[C@H](OC(=O)N4Cc5cccc(F)c5C4)C[C@H]2C(=O)N3)cc1 [Compound 808] | < 100 | 1000 to 10000
